Like-named read-outs stand apart in the source and are kept apart here.

Assay [1] has as its system tubulin. Kind of assay: fluorescence-based tubulin polymerization assay. The note with it: read-out: Anti-tubulin activity (IC50). It counts as biochemical, Bos taurus.
Assay [2] has as its system tubulin. As to the kind of experiment: fluorescence-based tubulin polymerization assay. It counts as biochemical, Bos taurus. The conditions noted are these: read-out: Anti-tubulin activity (IC50). This is another data set of the same source.

For the compound `COc1cccc(NC(=O)c2cccc3c2Nc2cccc(Cl)c2N3C)c1` [8a, 6-Chloro-N-(3-methoxyphenyl)-5-methyl-5,10-dihydrophenazine-1-carboxamide], the IC50 in the assay with tubulin [1] worked out at 2640 nM. For the compound `CN1c2cccc(C(=O)Nc3cccnc3)c2Nc2cccc(Cl)c21` [8l, 6-Chloro-5-methyl-N-(pyridin-3-yl)-5,10-dihydrophenazine-1-carboxamide], the concentration for half-maximal inhibition (IC50) in the assay with tubulin [1] was 2360 nM.

With `COC(=O)Nc1nc2ccc(C(=O)c3cccs3)cc2[nH]1` [Nocodazole], the 50% inhibitory concentration (IC50) in the assay on tubulin [2] stood at […].

The values above are taken from paper PMC9064817 (RSC Advances, 2019).
